Results reported in patent US9828351B2, “Enzyme interacting agents” (MONASH UNIVERSITY, priority 2014, dated 2017).

What was measured:
Type in all cases: cell-based
[1] = biological target: T1, Dihydroceramide Desaturase-1 (Des1) (Homo sapiens, UniProt O15121); test: Dihydroceramide desaturase-1 (Des1) activity by HPLC in intact Jurkat cells labeled with DhCer-C6-NBD; details: intact Jurkat cells; read-out: Des 1 IC50
T1 construct: These modifications included the use of parental Jurkat cells; endogenous in cells; host or cells: parental Jurkat cells
T1 sequence (O15121 1-323): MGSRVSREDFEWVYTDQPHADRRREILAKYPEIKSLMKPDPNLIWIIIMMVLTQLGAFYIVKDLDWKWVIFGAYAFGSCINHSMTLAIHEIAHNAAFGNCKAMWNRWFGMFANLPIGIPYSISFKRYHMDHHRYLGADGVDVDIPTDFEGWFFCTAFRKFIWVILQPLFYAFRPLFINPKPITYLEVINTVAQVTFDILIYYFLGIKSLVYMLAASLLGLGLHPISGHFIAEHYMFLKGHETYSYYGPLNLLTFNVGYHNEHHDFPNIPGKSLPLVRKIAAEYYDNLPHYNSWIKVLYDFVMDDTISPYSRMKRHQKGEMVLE
Description: Measurement of Dihydroceramide Desaturase-1 (Des1) Activity:
These modifications included the use of parental Jurkat cells, 0.5% serum in the culture media, and cell harvesting via centrifugation at 500×g to maximise ceramide extraction. Extracted samples (50 ul) were analysed on a Waters HPLC coupled to a fluorescence detector using a 30 cm C18 reverse-phase column eluted with 1 ml/min 20% H2O and 80% acetonitrile, both with a 0.1% of trifluoroacetic acid.

[2] = system: PC3 prostate cancer cell lines; test: Anticancer activity in PC3 cell line, CellTitre AQueous One cell viability assay; details: Homo sapiens, PC-3; concentration required to inhibit cell proliferation by 50%; 72 hours
Description: Measurement of Anticancer Activity in PC3 Cell Line Assays
PC3 prostate cancer cell lines were cultured in DMEM (containing 10% fetal calf serum and penicillin-streptomycin).
Before treatment with drug compounds, cells were plated at 2,500 cells/well in 96 well plates and incubated at 37° C. with 5% CO2 in a humidified incubator for 24 hours prior. Cells were only plated in columns 3-10 and rows C—F to ensure uniform humidity and warmth across all wells. The remaining wells were filled with 100 μL of phosphate buffered saline.
Drug stock solutions (50 or 10 mM) were diluted×1000 in media to a final concentration of either 50 μM or 10 μM with a DMSO vehicle concentration of 0.1%.
Cell culture supernatants were aspirated and replaced with drug containing media. Drug treatments were performed in duplicate wells, while potential plate layout-specific variation in cell growth was accounted for by addition of a vehicle control (0.1% DMSO).
Cells were then incubated with drug compounds at 37° C. with 5% CO2 in a humidified incubator for 72 hours prior to assay.
Media was diluted with CellTitre AQueous One Solution (Promega, Australia; Cat # G3580) according to manufacturer's instructions to produce a final concentration of 317 μg/mL.
Cell culture supernatants were then aspirated from wells and replaced with 100 μL of CellTitre solution. Triplicate cell-free control wells containing only CellTitre solution were also included in each assay.
Cells were then incubated at 37° C. with 5% CO2 in a humidified incubator for 1 hour at which time absorbance was read at 490 nm with an EnVision microplate reader (Perkin Elmer, Australia).
When analysing data, background absorbance (taken from cell-free control wells) was subtracted from each reading. […] For each drug concentration the mean (±SEM) is calculated and graphed using GraphPad Prism (version 5). A sigmoidal curved is fitted to the data and used to calculate the IC50 of each compound.

MCF7 breast cancer cells = test: Anticancer activity in MCF7 cell lines, MTS assay; details: Homo sapiens, concentration required to inhibit cell proliferation by 50%, 72 hrs, read-out: MCF-7 IC50
Description: Measurement of Anticancer Activity in MCF7 Cell Lines
MCF7 breast cancer cells were treated with the test compounds and incubated at 37° C., 5% CO2 in air for 72 hrs. The MTS assay was conducted with addition of prepared MTS solution followed by 2 hr incubation, an OD reading and the raw data recorded. The data was managed in tabular form, values adjusted for vehicle control, and the adjusted values graphed as a sigmoidal curve and the EC50 value calculated.

IC50 [1]: 0.1 to 1 µM
IC50 [2]: 1 to 10 µM
IC50 (MCF7 breast cancer cells): 10 to 100 µM
SMILES: Oc1ccc(Nc2nc(-c3ccc(Cl)cc3)cs2)cc1 [SKI-II, reference compound]
